Results on one compound are retold here after US20100273711A1, “INDIVIDUALIZED CANCER TREATMENTS” (priority 2007, published 2010).

Entries after “also recorded” stand apart in the source; their conditions may differ.

In assay [1] the test system is NSCLC cell line (H2030). Nature of the assay: Cell proliferation and drug sensitivity assay (MTT colorimetric assay, 96 hrs), H2030. Format: cell-based. The protocol: Lung and ovarian cancer cell culture. The NSCLC cell lines (H23, H225, H322, H358, H441, H520, A549, H647, H838, H1650, H1651, H1666, H1734, H1793, H1838, H2030 and H2 126) were grown as recommended by the supplier (ATCC, Rockville, Mo.). The ovarian cancer cell lines (OCV AR-3, OVCAR-5, TOV-21G and TOV-1120) were grown as recommended by the supplier (ATCC, Rockville, Mo.). FUOV-1, a human ovarian carcinoma, was grown according to the supplier (DSMZ, Braunschweig, Germany). Ten additional cell lines (C13, OV2008, A2780-CP, A2780S, IGROV-1, T8, IMCC3, 1MCC5, SKOV3 and A200S) were provided by Dr. Patricia Kruk (University of South Florida, Fla.). These ten cell lines were grown in RPMI 1640, supplemented with 10% Fetal Bovine Serum, 1% Sodium pyruvate, and 1% non essential amino acids. Tissue culture media and Thiazolyl Blue Tetrazolium Bromide were purchased from Sigma Aldrich (St. Louis, Mo.). […]
Cell proliferation and Drug sensitivity assays. Optimal cell number and linear range of drug concentration were determined for each cell line and drug as described previously (Bild A, Yao G, Chang S T, et al: Oncogenic pathways signatures in human cancers as guide to targeted therapies. Nature 439(7074):353-357, 2006, Potti A, Dressman H K, Bild A, et al: Genomic signatures to guide the use of chemotherapeutics. Nature Medicine 12(11): 1294-1300, 2006). […]
A general note: Tetrazolium dyes change colour on reduction, which living cells bring about.

Assay [2] relates to HL-60. To be noted: pemetrexed, cell line HL-60; cited from earlier work.
Assay [3] concerns HCC-2998. To be noted: pemetrexed, cell line HCC-2998; cited from earlier work.
For assay [4], the system named is HCT-116. Conditions: pemetrexed, cell line HCT-116; cited from earlier work.
Assay [5] concerns NCI-H460. Conditions: pemetrexed, cell line NCI-H460; cited from earlier work.
Assay [6] concerns SNB-19. Conditions: pemetrexed, cell line SNB-19; cited from earlier work.
For assay [7], the system named is HS578T. Conditions: pemetrexed, cell line HS578T; cited from earlier work.
Assay [8] has as its system MDA-MB-231. To be noted: pemetrexed, cell line MDA-MB-231; cited from earlier work.
The subject of assay [9] is 257p. Conditions: pemetrexed, cell line 257P; cited from earlier work.
The test system of assay [10] is C8161. Conditions: pemetrexed, cell line C8161; cited from earlier work.
The test system of assay [11] is SKMel19. To be noted: pemetrexed, cell line SKMel19; cited from earlier work.
The test system of assay [12] is SNU182. To be noted: pemetrexed, cell line SNU182; cited from earlier work.
Assay [13] concerns SW13. To be noted: pemetrexed, cell line Sw13; cited from earlier work.
For assay [14], the system named is R103. To be noted: pemetrexed, cell line R103; cited from earlier work.

For `Nc1nc2[nH]cc(CCc3ccc(C(=O)N[C@@H](CCC(=O)O)C(=O)O)cc3)c2c(=O)[nH]1` [Pemetrexed, pemetrexed], in assay [1] (H2030 first treated for four days with a taxane (docetaxel or paclitaxel)), the “sensitivity to subsequent pemetrexed exposure” value is “resistance to subsequent pemetrexed exposure was induced; also recorded: develops resistance”. In assay [1] (H2030 first treated with pemetrexed), the sensitivity to pemetrexed entry is reported as “sensitive”. For the same compound, the “Resistant (Res) or Sensitive (Sen)” value in assay [2] is on record as “Res”; in [3], “Res”; in assay [4] it was “Res”; in [5], “Res”; in [6], “Sen”; in assay [7], “Sen”. For the same compound, the “Resistant (Res) or Sensitive (Sen)” value is “Sen” in assay [8]; “Res” in assay [9]; “Res” in assay [10]; “Res” in assay [11]; “Res” in [12]; “Res” in assay [13]. The “Resistant (Res) or Sensitive (Sen)” value in assay [14] was “Sen”.
